pIC50: −log10 of the molar value.
molecular target: T1, Human TRPC6 (Homo sapiens, UniProt Q9Y210); experiment: Evaluation of TRPC6 channel inhibitory activity (1), FLIPR Calcium 5 Assay Kit, OAG stimulation (Compound Nos. 1-1293); assay type: cell-based; settings: not given
T1 construct: expressed in transfected cells
T1 sequence (Q9Y210 1-931): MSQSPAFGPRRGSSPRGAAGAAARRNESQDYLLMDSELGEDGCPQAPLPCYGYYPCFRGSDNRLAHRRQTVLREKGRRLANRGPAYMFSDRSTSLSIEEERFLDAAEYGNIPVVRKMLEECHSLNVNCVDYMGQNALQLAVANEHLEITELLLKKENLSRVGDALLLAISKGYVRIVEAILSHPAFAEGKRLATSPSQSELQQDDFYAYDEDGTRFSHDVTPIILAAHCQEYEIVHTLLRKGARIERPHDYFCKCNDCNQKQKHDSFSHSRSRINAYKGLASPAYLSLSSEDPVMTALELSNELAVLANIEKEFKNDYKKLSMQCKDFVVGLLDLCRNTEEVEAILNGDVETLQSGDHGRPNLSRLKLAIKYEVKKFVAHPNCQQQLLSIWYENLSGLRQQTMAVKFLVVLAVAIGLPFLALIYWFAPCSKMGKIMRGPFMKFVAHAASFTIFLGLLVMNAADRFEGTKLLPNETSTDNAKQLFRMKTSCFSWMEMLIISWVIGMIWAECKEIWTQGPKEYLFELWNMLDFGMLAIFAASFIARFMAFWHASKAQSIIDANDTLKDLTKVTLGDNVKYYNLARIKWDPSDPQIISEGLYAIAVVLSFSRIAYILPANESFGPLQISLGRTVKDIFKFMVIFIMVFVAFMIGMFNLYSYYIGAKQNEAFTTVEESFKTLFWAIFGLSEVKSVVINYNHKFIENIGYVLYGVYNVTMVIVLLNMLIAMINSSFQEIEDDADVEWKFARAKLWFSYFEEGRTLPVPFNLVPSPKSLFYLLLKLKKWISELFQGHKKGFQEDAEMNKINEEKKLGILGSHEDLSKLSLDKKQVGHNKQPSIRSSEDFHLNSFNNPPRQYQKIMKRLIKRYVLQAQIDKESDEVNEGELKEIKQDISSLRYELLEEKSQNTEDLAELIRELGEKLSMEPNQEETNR
Method in brief: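 Stable human TRPC6 line; fluorescent Ca2+ dye loading, then 20 min compound exposure before 30 μM OAG trigger. Peak-minus-baseline signal converted to % inhibition against untreated and unstimulated wells; potency given as pIC50 band.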

Structure (SMILES)	pIC50
N#Cc1ccc(-c2ncc(CCN)cn2)c(Oc2cc(N3C4CCC3CC4)ncc2C#N)c1 [compound 748, 4-[2-[5-(2-aminoethyl)pyrimidin-2-yl]-5-cyanophenoxy]-6-(7-azabicyclo[2.2.1]heptan-7-yl)pyridine-3-carbomtrile]	> 8.00
N#Cc1ccc(-c2ncc(CN)cn2)c(Oc2cc(N3C4CCC3CC4)ncc2C#N)c1 [compound 749, 4-[2-[5-(aminomethyl)pyrimidin-2-yl]-5-cyanophenoxy]-6-(7-azabicyclo[2.2.1]heptan-7-yl)pyridine-3-carbonitrile]	6.00 to 8.00
N#Cc1ccc(-c2ncc(CCN)cn2)c(Oc2ccc(N3C4CCC3CC4)nc2)c1 [compound 752, 4-[5-(2-aminoethyl)pyrimidin-2-yl]-3-[6-(7-azabicyclo[2.2.1]heptan-7-yl)pyridin-3-yl]oxybenzonitrile]	6.00 to 8.00

same assay, conditions: Human TRPC6 stably-expressing cells, OAG 30 μM, FLIPR Calcium 5 Assay Kit; read-out: Inhibitory activity (pIC50 class) (converted)

IC50 [nM]	Structure (SMILES)
10 to 1000	N#Cc1ccc(-c2ncc(CCN)cn2)c(Oc2nnc(N3CCCC3)s2)c1 [compound 726, 4-[5-(2-aminoethyl)pyrimidin-2-yl]-3-[(5-pyrrolidin-1-yl-1,3,4-thiadiazol-2-yl)oxy]benzonitrile]
10 to 1000	N#Cc1ccc(-c2ccc(CC3(N)COC3)cn2)c(Oc2cc(N3CCCC3)ncc2C#N)c1 [compound 738, 4-[2-[5-[(3-aminooxetan-3-yl)methyl]pyridin-2-yl]-5-cyanophenoxy]-6-pyrrolidin-1-ylpyridine-3-carbonitrile]
10 to 1000	N#Cc1ccc(-c2ncc(CCN)cn2)c(Oc2cc(N3CCCC3)ncc2C#N)c1 [compound 739, 4-[2-[5-(2-aminoethyl)pyrimidin-2-yl]-5-cyanophenoxy]-6-pyrrolidin-1-ylpyridine-3-carbonitrile]
> 1000	N#Cc1ccc(-c2ncc(CN)cn2)c(Oc2cc(N3CCCC3)ncc2C#N)c1 [compound 740, 4-[2-[5-(aminomethyl)pyrimidin-2-yl]-5-cyanophenoxy]-6-pyrrolidin-1-ylpyridine-3-carbonitrile]
10 to 1000	Cn1nc(N2CCCC2)cc1Oc1cc(C#N)ccc1-c1ccc(CC2(N)COC2)cn1 [compound 741, 4-[5-[(3-aminooxetan-3-yl)methyl]pyridin-2-yl]-3-(2-methyl-5-pyrrolidin-1-ylpyrazol-3-yl)oxybenzonitrile]
< 10	Cn1nc(N2CCCCC2)cc1Oc1cc(C#N)ccc1-c1ccc(CC2(N)COC2)cn1 [compound 742, 4-[5-[(3-aminooxetan-3-yl)methyl]pyridin-2-yl]-3-(2-methyl-5-piperidin-1-ylpyrazol-3-yl)oxybenzonitrile]
< 10	CN(C)c1cc(Oc2cc(C#N)ccc2-c2ccc(CC3(N)COC3)cn2)n(C)n1 [compound 743, 4-[5-[(3-aminooxetan-3-yl)methyl]pyridin-2-yl]-3-[5-(dimethylamino)-2-methylpyrazol-3-yl]oxybenzonitrile]
10 to 1000	N#Cc1ccc(-c2ncc(CCN)cn2)c(Oc2ccc(N3CCCC3)nc2)c1 [compound 750, 4-[5-(2-aminoethyl)pyrimidin-2-yl]-3-(6-pyrrolidin-1-ylpyridin-3-yl)oxybenzonitrile]
> 1000	N#Cc1ccc(-c2ncc(CN)cn2)c(Oc2ccc(N3CCCC3)nc2)c1 [compound 751, 4-[5-(aminomethyl)pyrimidin-2-yl]-3-(6-pyrrolidin-1-ylpyridin-3-yl)oxybenzonitrile]

The remaining lines, values behind:

Structure (SMILES)	IC50 [nM]
CN(C)c1nnc(Oc2cc(C#N)ccc2-c2ncc(CCN)cn2)s1 [compound 727, 4-[5-(2-aminoethyl)pyrimidin-2-yl]-3-[[5-(dimethylamino)-1,3,4-thiadiazol-2-yl]oxy]benzonitrile]	10 to 1000
N#Cc1ccc(-c2ncc(CCN)cn2)c(Oc2nnc(C3CC3)s2)c1 [compound 728, 4-[5-(2-aminoethyl)pyrimidin-2-yl]-3-[(5-cyclopropyl-1,3,4-thiadiazol-2-yl)oxy]benzonitrile]	10 to 1000
N#Cc1ccc(-c2ncc(CCN)cn2)c(Oc2nnc(-c3cccnc3)s2)c1 [compound 729, 4-[5-(2-aminoethyl)pyrimidin-2-yl]-3-[(5-pyridin-3-yl-1,3,4-thiadiazol-2-yl)oxy]benzonitrile]	10 to 1000
N#Cc1ccc(-c2ncc(CCN)cn2)c(Oc2nnc(-c3ccncc3)s2)c1 [compound 730, 4-[5-(2-aminoethyl)pyrimidin-2-yl]-3-[(5-pyridin-4-yl-1,3,4-thiadiazol-2-yl)oxy]benzonitrile]	10 to 1000
Cn1nc(C2CC2)cc1Oc1cc(C#N)ccc1-c1cc(CN)cn2cnnc12 [compound 731, 4-[6-(aminomethyl)-[1,2,4]triazolo[4,3-a]pyridin-8-yl]-3-(5-cyclopropyl-2-methylpyrazol-3-yl)oxybenzonitrile]	> 1000
Cn1nc(-c2ccccn2)cc1Oc1cc(C#N)ccc1-c1cc(CN)cn2cnnc12 [compound 732, 4-[6-(aminomethyl)-[1,2,4]triazolo[4,3-a]pyridin-8-yl]-3-(2-methyl-5-pyridin-2-ylpyrazol-3-yl)oxybenzonitrile]	10 to 1000
Cc1cc(Oc2cc(C#N)ccc2-c2cc(CN)cn3cnnc23)cc(N2CCOCC2)n1 [compound 733, 4-[6-(aminomethyl)-[1,2,4]triazolo[4,3-a]pyridin-8-yl]-3-(2-methyl-6-morpholin-4-ylpyridin-4-yl)oxybenzonitrile]	> 1000
CCC(N)c1cnc(-c2ccc(C#N)cc2Oc2cc(-c3ccccn3)nn2C)nc1 (stereo not drawn) [compound 734, 4-[5-(1-aminopropyl)pyrimidin-2-yl]-3-(2-methyl-5-pyridin-2-ylpyrazol-3-yl)oxybenzonitrile]	< 10
CCC(N)c1cnc(-c2ccc(C#N)cc2Oc2cc(C)nc(N3CCOCC3)c2)nc1 (stereo not drawn) [compound 735, 4-[5-(1-aminopropyl)pyrimidin-2-yl]-3-(2-methyl-6-morpholin-4-ylpyridin-4-yl)oxybenzonitrile]	< 10
Cn1nc(C2CC2)cc1Oc1cc(C#N)ccc1-c1cc(CN)cn2ccnc12 [compound 736, 4-[6-(aminomethyl)imidazo[1,2-a]pyridin-8-yl]-3-(5-cyclopropyl-2-methylpyrazol-3-yl)oxybenzonitrile]	10 to 1000
Cn1nc(-c2ccccn2)cc1Oc1cc(C#N)ccc1-c1cc(CN)cn2ccnc12 [compound 737, 4-[6-(aminomethyl)imidazo[1,2-a]pyridin-8-yl]-3-(2-methyl-5-pyridin-2-ylpyrazol-3-yl)oxybenzonitrile]	< 10
Cc1nc(Oc2cc(C#N)ccc2-n2cc3c(n2)CCNC3)cc(N2CCCCC2)n1 [compound 744, 3-(2-methyl-6-piperidin-1-ylpyrimidin-4-yl)oxy-4-(4,5,6,7-tetrahydropyrazolo[4,3-c]pyridin-2-yl)benzonitrile]	10 to 1000
Cc1nc(Oc2cc(C#N)ccc2-n2ncc3c2CCNC3)cc(N2CCCCC2)n1 [compound 745, 3-(2-methyl-6-piperidin-1-ylpyrimidin-4-yl)oxy-4-(4,5,6,7-tetrahydropyrazolo[4,3-c]pyridin-1-yl)benzonitrile]	> 1000
Cc1nc(Oc2cc(C#N)ccc2-n2cc3c(n2)CNCC3)cc(N2CCCCC2)n1 [compound 746, 3-(2-methyl-6-piperidin-1-ylpyrimidin-4-yl)oxy-4-(4,5,6,7-tetrahydropyrazolo[3,4-c]pyridin-2-yl)benzonitrile]	> 1000
Cc1nc(Oc2cc(C#N)ccc2-n2ncc3c2CNCC3)cc(N2CCCCC2)n1 [compound 747, 3-(2-methyl-6-piperidin-1-ylpyrimidin-4-yl)oxy-4-(4,5,6,7-tetrahydropyrazolo[3,4-c]pyridin-1-yl)benzonitrile]	> 1000

Source: US20230167073A1 (Teijin Pharma Limited, priority 2020, published 2023)
